Test results reported in patent US9090593B2, “Bicyclic compounds as Pim inhibitors” (AMGEN INC., priority 2010, dated 2015).

Legend:
[1] = molecular target: T1, Pim-2 stably transfected into the U2OS human osteogenic sarcoma line (Homo sapiens, UniProt Q9P1W9); experiment: Pim cell assay, phospho-BAD normalized against total BAD, U2OS stably transfected with Pim-2; format: cell-based; conditions: U2OS stably transfected with Pim-2; phospho-BAD normalized against total BAD; 29 min incubation; read-out: Pim2_Cell_IC50_
T1 construct: expressed in transfected cells; host or cells: U2OS human osteogenic sarcoma line
T1 sequence (Q9P1W9 whole entry): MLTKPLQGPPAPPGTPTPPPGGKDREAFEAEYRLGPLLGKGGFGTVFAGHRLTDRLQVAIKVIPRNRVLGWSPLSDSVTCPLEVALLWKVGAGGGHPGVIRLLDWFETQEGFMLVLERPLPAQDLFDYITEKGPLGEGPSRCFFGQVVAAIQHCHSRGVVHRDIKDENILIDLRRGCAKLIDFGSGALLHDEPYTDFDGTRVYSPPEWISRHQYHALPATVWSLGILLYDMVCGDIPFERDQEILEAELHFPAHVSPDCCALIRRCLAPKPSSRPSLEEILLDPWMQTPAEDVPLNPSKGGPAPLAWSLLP
Experimental: (§1) The cell lines used in the assay were generated by the stable transfection of either Pim-1 or Pim-2 into the U2OS human osteogenic sarcoma line. The assay for determination of the Pim activity in the engineered U2OS cell lines measures levels of phospho-BAD normalized against total BAD protein levels. It was conducted as follows:
(§2) The adherent cells were dissociated from the flasks using non-enzymatic cell dissociation solution (Sigma # C5914). […] The cells were then incubated overnight at 37° C., 5% CO2.
(§3) In addition to the 10-point dosing curve of the test compound, DMSO alone was run as the high control.
(§4) This dilution in DMSO was then diluted again into cell growth medium. Aliquots (12 uL) of the compound diluted in growth medium were then transferred to the appropriate wells of the 96-well plates containing cells to yield a final DMSO concentration of 0.3%.
(§5) The cell plates containing lysis buffer were then immediately stored at −70° C.
(§6) These prepared lysates were then assayed for phospho and total BAD according to the manufacturer's protocols (Meso Scale Diagnostics, Cat# K15103C-3 & # K15103D-3). The plates were read on the MSD Sector Imager 6000, and results were calculated according to the assay protocols ((% Phosphoprotein=((2×Phospho signal)/(Phospho signal+Total signal))×100)).

[2] = molecular target: T2, full length recombinant Pim-2 protein (Homo sapiens, UniProt Q9P1W9); experiment: Pim-2 enzyme assay (HTRF, phosphorylation of biotinylated-BAD (S112) peptide); format: biochemical; conditions: read-out: Pim2_IC50
T2 construct: by full length recombinant Pim-1, Pim-2, or Pim-3 protein; hexahistidine tag followed by a thrombin cleavage site (N); made in house; host or cells: Sf9 (baculovirus) or E. coli (pET28)
T2 sequence (Q9P1W9 whole entry): as above
Method in brief: (§7)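 Full-length human Pim-1 or Pim-2 (His6-tagged, Sf9 or E. coli expressed, Ni and Superdex 75 purified) phosphorylates biotinylated BAD (S112) peptide in 60 mM Hepes pH 7.0, 0.05% BSA, 2 mM DTT. Stopped with 3 mM EDTA; HTRF read with Eu anti-phospho-BAD and streptavidin-APC. IC50 from 4-parameter logistic fit of percent of control.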

[3] = molecular target: T3, Pim-1 stably transfected into the U2OS human osteogenic sarcoma line (Homo sapiens, UniProt P11309); experiment: Pim cell assay, phospho-BAD normalized against total BAD, U2OS stably transfected with Pim-1; format: cell-based; conditions: U2OS stably transfected with Pim-1; phospho-BAD normalized against total BAD; 29 min incubation; read-out: Pim1_Cell_IC50_
T3 construct: expressed in transfected cells; host or cells: U2OS human osteogenic sarcoma line
T3 sequence (P11309 whole entry): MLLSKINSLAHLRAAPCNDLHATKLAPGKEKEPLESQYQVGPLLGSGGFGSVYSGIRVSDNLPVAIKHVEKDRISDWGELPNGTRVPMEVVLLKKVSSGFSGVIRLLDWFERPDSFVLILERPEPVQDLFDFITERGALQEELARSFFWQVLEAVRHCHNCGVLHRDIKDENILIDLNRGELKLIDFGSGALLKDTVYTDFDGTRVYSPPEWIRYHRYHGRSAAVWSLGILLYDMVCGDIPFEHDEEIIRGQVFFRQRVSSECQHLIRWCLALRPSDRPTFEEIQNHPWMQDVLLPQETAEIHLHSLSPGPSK
Experimental: as §1, §2, §3, §4, §5, §6

[4] = molecular target: T4, full length recombinant Pim-1 protein (Homo sapiens, UniProt P11309); experiment: Pim-1 enzyme assay (HTRF, phosphorylation of biotinylated-BAD (S112) peptide); format: biochemical; conditions: read-out: Pim_1_IC50
T4 construct: by full length recombinant Pim-1, Pim-2, or Pim-3 protein; hexahistidine tag followed by a thrombin cleavage site (N); made in house; host or cells: Sf9 (baculovirus) or E. coli (pET28)
T4 sequence (P11309 whole entry): as above
Method in brief: as §7

| IC50 [1] [µM] | IC50 [2] [nM] | IC50 [3] [nM] | IC50 [4] [nM] | Compound |
| --- | --- | --- | --- | --- |
| 11.8 | 32 | 154 | 6 | c1cc2[nH]cc(-c3cncc(O[C@@H]4CCCNC4)n3)c2cc1-c1cnn(C2CC2)c1 [Example 291, 5-(1-cyclopropyl-1H-pyrazol-4-yl)-3-(6-((3R)-3-piperidinyloxy)-2-pyrazinyl)-1H-indole] |
| ≥ 35.2 | 19 | 649 | 4 | COc1ccc(-c2ccc3[nH]cc(-c4cncc(O[C@@H]5CCCNC5)n4)c3c2)cc1F [Example 292] |
| > 31.6 | 60 | > 31600 | 16 | Oc1ncc(-c2ccc3[nH]cc(-c4cncc(O[C@@H]5CCCNC5)n4)c3c2)c(O)n1 [Example 293] |
| 9.44 | 26 | 521 | 7 | COc1cc(OC)cc(-c2ccc3[nH]cc(-c4cncc(O[C@@H]5CCCNC5)n4)c3c2)c1 [Example 294] |
| 8.45 | 7 | 166 | 3 | Fc1cnccc1-c1ccc2[nH]cc(-c3cncc(O[C@@H]4CCCNC4)n3)c2c1 [Example 297, 5-(3-fluoro-4-pyridinyl)-3-(6-((3R)-3-piperidinyloxy)-2-pyrazinyl)-1H-indole] |
| > 31.6 | 231 | 1270 | 3 | c1cc(-c2ccc3[nH]cc(-c4cncc(O[C@@H]5CCCNC5)n4)c3c2)nc(N2CCNCC2)c1 [Example 299] |
| 17 | 18 | 125 | 4 | c1cc(N2CCOCC2)ccc1-c1ccc2[nH]cc(-c3cncc(O[C@@H]4CCCNC4)n3)c2c1 [Example 309, 5-(4-(4-morpholinyl)phenyl)-3-(6-((3R)-3-piperidinyloxy)-2-pyrazinyl)-1H-indole] |
| > 31.6 | 25 | 412 | 8 | O=C(Nc1ccc(-c2ccc3[nH]cc(-c4cncc(O[C@@H]5CCCNC5)n4)c3c2)cc1)C1CC1 [Example 311] |
| 9.06 | 24 | 444 | 7 | OCc1cccc(-c2ccc3[nH]cc(-c4cncc(O[C@@H]5CCCNC5)n4)c3c2)c1 [Example 315] |
| 3.4 | 9 | 103 | 2 | OCc1ccc(-c2ccc3[nH]cc(-c4cncc(O[C@@H]5CCCNC5)n4)c3c2)cc1 [Example 316, (4-(3-(6-((3R)-3-piperidinyloxy)-2-pyrazinyl)-1H-indol-5-yl)phenyl)methanol] |
| 23.6 | 19 | 662 | 5 | COc1ccc(-c2ccc3[nH]cc(-c4cncc(O[C@@H]5CCCNC5)n4)c3c2)cc1 [Example 321] |
| > 31.6 | 34 | 957 | 4 | CC(C)Oc1ccc(-c2ccc3[nH]cc(-c4cncc(O[C@@H]5CCCNC5)n4)c3c2)cc1 [Example 324] |
| 7.19 | 10 | 314 | 3 | N#Cc1ccccc1-c1ccc2[nH]cc(-c3cncc(O[C@@H]4CCCNC4)n3)c2c1 [Example 326] |
| 8.06 | 19 | 666 | 5 | CC(=O)Nc1ccc(-c2ccc3[nH]cc(-c4cncc(O[C@@H]5CCCNC5)n4)c3c2)cc1 [Example 327] |
| > 10 | 40 | 803 | 11 | N#Cc1ncccc1-c1ccc2[nH]cc(-c3cncc(O[C@@H]4CCCNC4)n3)c2c1 [Example 333] |
| > 31.6 | 72 | 1060 | 5 | c1cc2[nH]cc(-c3cncc(O[C@@H]4CCCNC4)n3)c2cc1-c1cnc2c(c1)CCCN2 [Example 335] |

| IC50 [1] [µM] | IC50 [2] [nM] | IC50 [3] [nM] | IC50 [4] [nM] | Compound |
| --- | --- | --- | --- | --- |
| > 10 | 33 | 857 | 8 | c1cc2cc(-c3ccc4[nH]cc(-c5cncc(O[C@@H]6CCCNC6)n5)c4c3)cnc2[nH]1 [Example 336] |
| > 31.6 | 92 | 2580 | 14 | Cc1n[nH]c2ncc(-c3ccc4[nH]cc(-c5cncc(O[C@@H]6CCCNC6)n5)c4c3)cc12 [Example 339] |
| > 15.8 | 69 | 1270 | 9 | Nc1ccc(-c2ccc3[nH]cc(-c4cncc(O[C@@H]5CCCNC5)n4)c3c2)cc1OC(F)(F)F [Example 341] |
| > 15.8 | 19 | 1210 | 4 | c1cc2c(cc1-c1ccc3[nH]cc(-c4cncc(O[C@@H]5CCCNC5)n4)c3c1)OCO2 [Example 343] |
| > 15.8 | 68 | 3610 | 9 | FC(F)Oc1cccc(-c2ccc3[nH]cc(-c4cncc(O[C@@H]5CCCNC5)n4)c3c2)c1 [Example 344] |
| > 15.8 | 157 | 729 | 20 | COc1ccc(-c2ccc3[nH]cc(-c4cncc(O[C@@H]5CCCNC5)n4)c3c2)cc1OC [Example 345] |
| 9.69 | 16 | 273 | 2 | CN1CCOc2cc(-c3ccc4[nH]cc(-c5cncc(O[C@@H]6CCCNC6)n5)c4c3)ccc21 [Example 347] |
| > 15.8 | 193 | 2360 | 6 | N#CC1(c2cccc(-c3ccc4[nH]cc(-c5cncc(O[C@@H]6CCCNC6)n5)c4c3)c2)CCC1 [Example 350] |
| > 15.8 | 94 | 2720 | 8 | CC(C)Oc1cccc(-c2ccc3[nH]cc(-c4cncc(O[C@@H]5CCCNC5)n4)c3c2)c1 [Example 360] |
| > 31.6 | 71 | 2070 | 12 | c1cc(-c2ccc3[nH]nc(-c4cncc(O[C@@H]5CCCNC5)n4)c3c2)nc(C2CC2)n1 [Example 361] |
| 4.15 | 7 | 864 | 3 | CC(C)NC(=O)c1ccc(F)c(-c2ccc3[nH]nc(-c4cncc(N[C@@H]5CCCNC5)n4)c3c2)c1 [Example 362] |
| 8.8 | 27 | 868 | 14 | CC(O)c1cccc(-c2ccc3[nH]nc(-c4cncc(O[C@@H]5CCCNC5)n4)c3c2)c1 (stereo partly shown) [Example 367] |
| 1.77 | 37 | 23 | 6 | CC(C)Nc1cncc(-c2n[nH]c3ccc(-c4cncc(C5CC5)n4)cc23)n1 [Example 368, 6-(5-(6-cyclopropyl-2-pyrazinyl)-1H-indazol-3-yl)-N-(1-methylethyl)-2-pyrazinamine] |
| > 10 | 7 | 200 | 1 | c1cc2[nH]nc(-c3cncc(OC4CCNCC45CC5)n3)c2cc1-c1cncc(C2CC2)n1 (stereo not shown) [Example 372] |
| 3.37 | 5 | 130 | 1 | c1cc2[nH]nc(-c3cncc(O[C@@H]4CCNCC45CC5)n3)c2cc1-c1cncc(C2CC2)n1 [Example 373, 3-(6-((8R)-5-azaspiro[2.5]oct-8-yloxy)-2-pyrazinyl)-5-(6-cyclopropyl-2-pyrazinyl)-1H-indazole] |
